From ChEMBL document CHEMBL1125924, “Thienotriazolodiazepines as platelet-activating factor antagonists. Steric limitations for the substituent in position 2” (J Med Chem, 1991)
The source made the active and inactive calls. The rule behind the calls is not given here.

Assays:
Cavia porcellus [1] = assay: In vivo inhibitory dose against PAF-induced bronchoconstriction in guinea pig upon intravenous administration after one-minute pre-treatment time.; type: functional; conditions: read-out: ID50 (the source's name)
Cavia porcellus [2] = assay: In vivo inhibition against PAF-induced bronchoconstriction in guinea pig at 1 mg/kg dose upon peroral administration after […] pre-treatment time.; type: functional; conditions: route oral
Cavia porcellus [3] = assay: In vivo inhibitory dose against PAF-induced bronchoconstriction in guinea pig upon intravenous administration after one-minute pretreatment time; IA=Inactive; type: functional, organism-based
[4] = In vitro for platelet activating factor receptor antagonist activity in a binding assay using washed whole dog platelets.
Cavia porcellus [5] = assay: In vivo inhibitory dose against PAF-induced bronchoconstriction in guinea pig upon peroral administration after […] pretreatment time; type: functional; conditions: po, read-out: ID50 (the source's name)

| SMILES | ED50 (Cavia porcellus [1]) [mg/kg] | inhibition in vivo at 1 mg/kg (Cavia porcellus [2]) [%] | ID50 (Cavia porcellus [3]) | IC50 [4] [nM] | ED50 (Cavia porcellus [5]) [mg/kg] |
| --- | --- | --- | --- | --- | --- |
| CCCCc1ccc(C#Cc2cc3c(s2)-n2c(C)nnc2CN=C3c2ccccc2Cl)cc1 | 0.2 | 6 |  |  |  |
| Cc1nnc2n1-c1sc(/C=C\C(=O)N3CCOCC3)cc1C(c1ccccc1Cl)=NC2 | 0.06 | 20 |  |  |  |
| Cc1nnc2n1-c1sc(-c3[nH]nnc3C(=O)N3CCOCC3)cc1C(c1ccccc1Cl)=NC2 |  |  | inactive |  |  |
| Cc1nnc2n1-c1sc(CCc3ccc4c(c3)CCO4)cc1C(c1ccccc1Cl)=NC2 | 0.003 | 44 |  |  |  |
| Cc1nnc2n1-c1sc(C#CC(=O)N3CCOCC3)cc1C(c1ccccc1Cl)=NC2 | 0.5 | 16 |  |  |  |
| Cc1nnc2n1-c1sc(/C(CC(=O)N3CCOCC3)=N\N)cc1C(c1ccccc1Cl)=NC2 | 0.5 | 12 |  |  |  |
| Cc1cc(C#Cc2cc3c(s2)-n2c(C)nnc2CN=C3c2ccccc2Cl)cc2c1OC(C)(C)C2 |  |  | inactive |  |  |
| Cc1nnc2n1-c1sc(I)cc1C(c1ccccc1Cl)=NC2 | 0.2 | 4 |  | 370 |  |
| Cc1nnc2n1-c1sc(CCc3ccc(-c4ccccn4)s3)cc1C(c1ccccc1Cl)=NC2 | 0.003 | 89 |  |  | 0.4 |
| Cc1nnc2n1-c1sc(-c3cc(O)[nH]n3)cc1C(c1ccccc1Cl)=NC2 |  |  | inactive |  |  |
| Cc1nnc2n1-c1sc(C#CCO)cc1C(c1ccccc1Cl)=NC2 | 0.02 | 20 |  |  |  |
| Cc1nnc2n1-c1sc(C#Cc3ccc(CC(C)C)cc3)cc1C(c1ccccc1Cl)=NC2 | 0.3 | 2 |  |  |  |
| Cc1nnc2n1-c1sc(CCC(=O)N3CCOCC3)cc1C(c1ccccc1Cl)=NC2 [APAFANT] | 0.03 | 42 |  |  | 1.2 |
| Cc1nnc2n1-c1sc(CCc3ccc(CC(C)C)cc3)cc1C(c1ccccc1Cl)=NC2 | 0.002 | 99 |  |  | 0.03 |
| Cc1cc(CCc2cc3c(s2)-n2c(C)nnc2CN=C3c2ccccc2Cl)cc2c1OC(C)(C)C2 | 0.01 | 96 |  |  | 0.3 |
| Cc1nnc2n1-c1sc(/C=C\c3ccccn3)cc1C(c1ccccc1Cl)=NC2 | 0.05 | 20 |  |  |  |
| Cc1nnc2n1-c1sc(C#Cc3ccc(C4CCCCC4)cc3)cc1C(c1ccccc1Cl)=NC2 | 0.3 | 22 |  |  |  |
| Cc1nnc2n1-c1sc(C#Cc3ccc4c(c3)CCO4)cc1C(c1ccccc1Cl)=NC2 | 0.2 | 7 |  |  |  |

| SMILES | ED50 (Cavia porcellus [1]) [mg/kg] | inhibition in vivo at 1 mg/kg (Cavia porcellus [2]) [%] | ID50 (Cavia porcellus [3]) | IC50 [4] [nM] | ED50 (Cavia porcellus [5]) [mg/kg] |
| --- | --- | --- | --- | --- | --- |
| CCCCc1ccc(CCc2cc3c(s2)-n2c(C)nnc2CN=C3c2ccccc2Cl)cc1 | 0.003 | 98 |  |  | 0.2 |
| Cc1nnc2n1-c1sc(CCc3ccc(C4CCCCC4)cc3)cc1C(c1ccccc1Cl)=NC2 | 0.005 | 68 |  |  | 0.4 |
| Cc1nnc2n1-c1sc(CCc3ccc(-n4ccnc4)cc3)cc1C(c1ccccc1Cl)=NC2 | 0.003 | 95 |  |  | 0.4 |
| Cc1nnc2n1-c1sc(C#Cc3cccc4ccccc34)cc1C(c1ccccc1Cl)=NC2 | 0.03 | 14 |  |  |  |
| Cc1nnc2n1-c1sc(/C=C/C(=O)N3CCOCC3)cc1C(c1ccccc1Cl)=NC2 | 0.4 | 27 |  |  |  |
| Cc1nnc2n1-c1sc(C#Cc3ccccn3)cc1C(c1ccccc1Cl)=NC2 | 0.06 | 5 |  |  |  |
| Cc1nnc2n1-c1sc(C#C[Si](C)(C)C)cc1C(c1ccccc1Cl)=NC2 | 0.3 | 28 |  |  |  |
| Cc1nnc2n1-c1sc(/C=C\c3ccc(C4CCCCC4)cc3)cc1C(c1ccccc1Cl)=NC2 | 0.03 | 85 |  |  | 0.4 |
| Cc1nnc2n1-c1sc(C#Cc3ccc4c(c3)CCC4)cc1C(c1ccccc1Cl)=NC2 | 0.2 | 20 |  |  |  |
| Cc1nnc2n1-c1sc(CCc3ccc4c(c3)CCC4)cc1C(c1ccccc1Cl)=NC2 | 0.04 | 99 |  |  | 0.03 |
| Cc1nnc2n1-c1sc(C#Cc3ccccc3)cc1C(c1ccccc1Cl)=NC2 | 3 | 6 |  |  |  |
| Cc1nnc2n1-c1sc(Br)cc1C(c1ccccc1Cl)=NC2 [BROTIZOLAM] | 0.5 | 11 |  |  |  |
| Cc1nnc2n1-c1sc(C#Cc3ccc(-c4ccccn4)s3)cc1C(c1ccccc1Cl)=NC2 | 0.003 | 93 |  |  | 0.08 |
| Cc1nnc2n1-c1sc(/C=C\c3ccc4c(c3)CCC4)cc1C(c1ccccc1Cl)=NC2 | 0.03 | 58 |  |  | 0.7 |
| CCCCc1ccc(/C=C\c2cc3c(s2)-n2c(C)nnc2CN=C3c2ccccc2Cl)cc1 | 0.0004 | 93 |  |  | 0.35 |
| C#Cc1cc2c(s1)-n1c(C)nnc1CN=C2c1ccccc1Cl | 0.02 | 9 |  |  |  |
| Cc1nnc2n1-c1sc(/C=C\c3ccc(CC(C)C)cc3)cc1C(c1ccccc1Cl)=NC2 | 0.004 | 99 |  |  | 0.03 |
